Test results as given in US20070054258A1, “Method of removing mucus and cell treatment solution and preservative solution used therefor” (SYSMEX CORPORATION, priority 2003, published 2007).

What was measured:
Assay type in all cases: cell-based
squamous cells = experiment: Staining with fluorescent-labeled anti-NMP 179 antibody after treatment; conditions: cells treated with 5 mass % AcCys (FIG. 8)
Experimental: Squamous cells which were not treated with AcCys and squamous cells which were treated with 5 mass % AcCys were stained with a fluorescent-labeled anti-NMP 179 antibody which reacts with cells derived from uterine cervix except for normal uterine cervix squamous cells, and observed under a microscope to give each result of fluorescent image in FIG. 7 and FIG. 8.

[1] = system: cell populations in a clinical specimen derived from uterine cervix; experiment: Effect of removing mucus in clinical specimens of uterine cervix for cytodiagnosis (Giemsa stain, light microscope)
Experimental: Cell populations in a clinical specimen derived from uterine cervix which had been stored in 30 to 60 mass % methanol-based, buffered preservative solution (PreservCyt® manufactured by Cytyc Corporation) was transferred to a 1.5 ml centrifuge tube (about 1×10^5 cells/sample).
The solution was centrifuged (10000 rpm; 1 minute; 4° C.) to separate cells, and the supernatant was removed.
To the cells thus collected was added 1 ml of a mixture (hereinafter referred to as PBS-T) of 0.1% Tween 20 (Sigma) and 0.01M phosphate buffer (PBS available from Sigma; pH7.4) and the cells were resuspended.
The cells were washed by another centrifugation (10000 rpm, 1 minute, 4° C.) for cell separation, removal of the supernatant and cell collection. The cells washed were resuspended in 500 μl of the preservative solution.
10 mass % aqueous solution of N-acetyl-L-cysteine (hereinafter referred to as AcCys) was prepared for a cell treatment solution. This cell treatment solution was added to the cell suspension obtained from the above, and samples of B to E were prepared so that the AcCys concentrations in the samples were 0.625 mass %, 1.25 mass % or 5 mass %.
The solution obtained after the reaction was finished was then centrifuged (10000 rpm; 1 minute; 4° C.) to separate cells, and the supernatant was removed and cells were collected.
The cells were washed by resuspension in 1 ml of PBS-T, another centrifugation (10000 rpm; 1 minute, 4° C.) for cell separation, and removal of the supernatant. This washing procedure was repeated two times.
The cells collected were suspended in 300 μl of 100% methanol and mounted on a glass slide by using Cytospin. Then, cells on the slide were stained with 5% Giemsa Stain Solution (Sysmex) for 15 minutes, washed thoroughly with PBS, and observed under a light microscope to give micrographs of FIG. 1 to 5 for each sample of A to E. […]

[2] = system: cell populations of clinical specimen; experiment: Effect of the cell treatment solution on cell morphology; conditions: 5 minutes compared with 1 minute
Experimental: The cell treatment solutions containing L-cysteine at concentrations of 5 mass %, 10 mass % and 20 mass % were used to treat cell populations of clinical specimen for 1 minute or 5 minutes in the same manner of the above, and the cells were observed. The results of each sample treated with the solutions containing 5 mass %, 10 mass % and 20 mass % L-cysteine for 1 minute and 5 minutes were shown in FIG. 9 to FIG. 14.

Row | SMILES | specificity of fluorescent anti-NMP179 antibody staining (squamous cells) | mucus part (black clumps) after treatment ([1]; AcCys 5 mass % (Sample E), room temperature, 1 minute) | mucus part (black clumps) after treatment ([1]; AcCys 5 mass % (Sample F), reaction time 24 hours) | mucus part (black clumps) after treatment ([1]; AcCys under 5 mass % (Samples B to D), room temperature, 1 minute) | effect on cell morphology ([2]; 5 mass % L-cysteine) | effect on cell morphology ([2]; 10 mass % L-cysteine) | effect on cell morphology ([2]; 20 mass % L-cysteine)
1 | CC(=O)N[C@@H](CS)C(=O)O [AcCys, N-acetyl-L-cysteine] | specific staining | black clumps showing mucus part were disappeared | black clumps showing mucus part were disappeared | there remained black clumps which showed mucus part | – | – | –
2 | N[C@@H](CS)C(=O)O [L-cysteine] | – | – | – | – | did not affect the cell morphology | did not affect the cell morphology | did not affect the cell morphology
